Experiments:
Septoria tritici = Septoria tritici (leaf blotch), liquid culture growth inhibition in nutrient broth; assay type: cell-based; conditions: Zymoseptoria tritici; 200 ppm; PDB broth, 24 C; inhibition of growth determined photometrically after 72 hrs; read-out: control of fungal infection, Septoria tritici
Septoria nodorum = Septoria nodorum (wheat glume blotch), wheat leaf segment assay, preventive; assay type: in vivo; conditions: Parastagonospora nodorum, foliar, 96 h; 200 ppm; wheat leaf segments; assessed four days after inoculation; read-out: control of fungal infection, Septoria nodorum
Fusarium culmorum = Fusarium culmorum (root rot), liquid culture growth inhibition in nutrient broth; assay type: cell-based; conditions: PDB broth, 24 C, inhibition of growth determined photometrically after 48 hrs, read-out: control of fungal infection, Fusarium culmorum
Procedure: Mycelia fragments or conidia suspensions of a fungus, prepared either freshly from liquid cultures of the fungus or from cryogenic storage, are directly mixed into nutrient broth. DMSO solutions of the test compound (max. 10 mg/ml) is diluted with 0.025% Tween20 by factor 50 and 10 μl of this solution is pipetted into a microtiter plate (96-well format) and the nutrient broth containing the fungal spores/mycelia fragments is then added to give an end concentration of the tested compound. The test plates are incubated at 24° C. and 96% rH in the dark. The inhibition of fungal growth is determined photometrically after 2-6 days and antifungal activity is calculated.
Fusarium culmorum (root rot): Conidia of the fungus from cryogenic storage were directly mixed into nutrient broth (PDB potato dextrose broth). After placing a (DMSO) solution of the test compounds into a microtiter plate (96-well format) the nutrient broth containing the fungal spores was added. The test plates were incubated at 24 C and the inhibition of growth was determined photometrically after 48 hrs.

Phytophthora infestans = assay: whole plant or invertebrate; assay type: in vivo; conditions: in Solanum lycopersicum, foliar, 96 h, read-out: control of fungal infection, Phytophthora infestans
Botrytis cinerea = Botrytis cinerea (grey mould), bean leaf disk assay, preventive; assay type: in vivo; conditions: foliar, 96 h, 200 ppm, bean leaf disks, assessed four days after inoculation, read-out: control of fungal infection, Botrytis cinerea
Plasmopara viticola = Plasmopara viticola (downy mildew of grapevine), grapevine leaf disk assay, preventive; assay type: in vivo; conditions: foliar, 168 h, 200 ppm, grapevine leaf disks, assessed seven days after inoculation, read-out: control of fungal infection, Plasmopara viticola
[1] = system: Puccinia recondita f.sp. tritici; assay: Puccinia recondita f.sp. tritici (wheat brown rust), wheat leaf segment assay, preventive; assay type: in vivo; conditions: foliar, 216 h, 200 ppm, wheat leaf segments, assessed nine days after inoculation, read-out: control of fungal infection, Puccinia recondite f.sp. tritici
[2] = system: Erysiphe graminis f.sp. tritici; assay: Erysiphe graminis f.sp. tritici (wheat powdery mildew), wheat leaf segment assay, preventive; assay type: in vivo; conditions: Blumeria graminis, foliar, 96 h; 200 ppm; wheat leaf segments; assessed four days after inoculation; read-out: control of fungal infection, Etysiphe graminis f.sp. tritici
Pythium ultimum = Pythium ultimum (Damping off), liquid culture growth inhibition in potato dextrose broth; assay type: cell-based; conditions: Globisporangium ultimum; 20 ppm; potato dextrose broth, 24° C.; inhibition of growth determined photometrically after 48 hours; read-out: control of fungal infection, Pythium ultimum

C#Cc1cnc2ccc(OC(SC)C(=O)NC(C)(C#N)C=NOC)cc2c1 (centres unmarked) [Compound No. 59, N-(1-Cyano-2-methoxyimino-1-methyl-ethyl)-2-(3-ethynyl-quinolin-6-yloxy)-2-methylsulfanyl-acetamide]
≥ 60%: inhibition of growth at 200 ppm (Septoria tritici) | pest or weed control at 200 ppm (Septoria nodorum) | inhibition of growth at 200 ppm (Fusarium culmorum) | pest or weed control at 200 ppm (Phytophthora infestans) | pest or weed control at 200 ppm (Botrytis cinerea) | pest or weed control at 200 ppm (Plasmopara viticola) | pest or weed control at 200 ppm [1] | pest or weed control at 200 ppm [2]

C#Cc1cnc2ccc(OC(CC)C(=O)NC(C)(C#N)C=NOC)cc2c1 (centres unmarked) [Compound No. 61, N-(1-Cyano-2-methoxyimino-1-methyl-ethyl)-2-(3-ethynyl-quinolin-6-yloxy)-butyramide]
≥ 60%: inhibition of growth at 200 ppm (Septoria tritici) | inhibition of growth at 20 ppm (Pythium ultimum) | pest or weed control at 200 ppm (Septoria nodorum) | inhibition of growth at 200 ppm (Fusarium culmorum) | pest or weed control at 200 ppm (Phytophthora infestans) | pest or weed control at 200 ppm (Botrytis cinerea) | pest or weed control at 200 ppm (Plasmopara viticola) | pest or weed control at 200 ppm [1] | pest or weed control at 200 ppm [2]

C#CCOCC(C)(C=NOC)NC(=O)C(Oc1ccc2ncc(C#C)cc2c1)SC (centres unmarked) [Compound No. 62, 2-(3-Ethynyl-quinolin-6-yloxy)-N-(2-methoxyimino-1-methyl-1-prop-2-ynyloxymethyl-ethyl)-2-methylsulfanyl-acetamide]
≥ 60%: inhibition of growth at 200 ppm (Septoria tritici) | inhibition of growth at 20 ppm (Pythium ultimum) | pest or weed control at 200 ppm (Septoria nodorum) | pest or weed control at 200 ppm (Phytophthora infestans) | pest or weed control at 200 ppm (Botrytis cinerea) | pest or weed control at 200 ppm (Plasmopara viticola) | pest or weed control at 200 ppm [1] | pest or weed control at 200 ppm [2]

COCC(C)(C=NOC)NC(=O)C(Oc1ccc2ncc(Br)cc2c1)SC (centres unmarked) [Compound No. 64, 2-(3-Bromo-quinolin-6-yloxy)-N-[2-methoxy-1-(methoxyimino-methyl)-1-methyl-ethyl]-2-methylsulfanyl-acetamide]
≥ 60%: inhibition of growth at 200 ppm (Septoria tritici) | inhibition of growth at 20 ppm (Pythium ultimum) | pest or weed control at 200 ppm (Septoria nodorum) | inhibition of growth at 200 ppm (Fusarium culmorum) | pest or weed control at 200 ppm (Phytophthora infestans) | pest or weed control at 200 ppm (Botrytis cinerea) | pest or weed control at 200 ppm (Plasmopara viticola) | pest or weed control at 200 ppm [1] | pest or weed control at 200 ppm [2]

C#Cc1cnc2ccc(OC(SC)C(=O)NC(C)(C=NOC)COC)cc2c1 (centres unmarked) [Compound No. 65, 2-(3-Ethynyl-quinolin-6-yloxy)-N-(2-methoxyimino-1-methoxymethyl-1-methyl-ethyl)-2-methylsulfanyl-acetamide]
≥ 60%: inhibition of growth at 200 ppm (Septoria tritici) | inhibition of growth at 20 ppm (Pythium ultimum) | pest or weed control at 200 ppm (Septoria nodorum) | inhibition of growth at 200 ppm (Fusarium culmorum) | pest or weed control at 200 ppm (Phytophthora infestans) | pest or weed control at 200 ppm (Botrytis cinerea) | pest or weed control at 200 ppm (Plasmopara viticola) | pest or weed control at 200 ppm [1] | pest or weed control at 200 ppm [2]

C#Cc1cnc2ccc(OC(SC)C(=O)NC(C)(C#C)C=NOC)cc2c1 (centres unmarked) [Compound No. 69, 2-(3-Ethynyl-quinolin-6-yloxy)-N-[1-(methoxyimino-methyl)-1-methyl-prop-2-ynyl]-2-methylsulfanyl-acetamide]
≥ 60%: inhibition of growth at 200 ppm (Septoria tritici) | inhibition of growth at 20 ppm (Pythium ultimum) | pest or weed control at 200 ppm (Septoria nodorum) | inhibition of growth at 200 ppm (Fusarium culmorum) | pest or weed control at 200 ppm (Phytophthora infestans) | pest or weed control at 200 ppm (Botrytis cinerea) | pest or weed control at 200 ppm (Plasmopara viticola) | pest or weed control at 200 ppm [1] | pest or weed control at 200 ppm [2]

CON=CC1(NC(=O)C(Oc2ccc3ncc(I)cc3c2)SC)CCC1 (centres unmarked) [Compound No. 79, 2-(3-Iodo-quinolin-6-yloxy)-N-[1-(methoxyimino-methyl)-cyclobutyl]-2-methylsulfanyl-acetamide]
≥ 60%: inhibition of growth at 200 ppm (Septoria tritici) | inhibition of growth at 20 ppm (Pythium ultimum) | pest or weed control at 200 ppm (Septoria nodorum) | inhibition of growth at 200 ppm (Fusarium culmorum) | pest or weed control at 200 ppm (Phytophthora infestans) | pest or weed control at 200 ppm (Plasmopara viticola) | pest or weed control at 200 ppm [1] | pest or weed control at 200 ppm [2]

C#Cc1cnc2ccc(OC(SC)C(=O)NC3(C=NO)CCC3)cc2c1 (centres unmarked) [Compound No. 80, 2-(3-Ethynyl-quinolin-6-yloxy)-N-[1-(hydroxyimino-methyl)-cyclobutyl]-2-methylsulfanyl-acetamide]
≥ 60%: inhibition of growth at 200 ppm (Septoria tritici) | inhibition of growth at 20 ppm (Pythium ultimum) | pest or weed control at 200 ppm (Septoria nodorum) | inhibition of growth at 200 ppm (Fusarium culmorum) | pest or weed control at 200 ppm (Phytophthora infestans) | pest or weed control at 200 ppm (Plasmopara viticola) | pest or weed control at 200 ppm [1] | pest or weed control at 200 ppm [2]

CON=CC(C)NC(=O)C(Oc1ccc2ncc(Br)cc2c1)SC (centres unmarked) [Compound No. 94, 2-(3-Bromo-quinolin-6-yloxy)-N-(2-methoxyimino-1-methyl-ethyl)-2-methylsulfanyl-acetamide]
≥ 60%: inhibition of growth at 200 ppm (Septoria tritici) | inhibition of growth at 20 ppm (Pythium ultimum) | pest or weed control at 200 ppm (Septoria nodorum) | inhibition of growth at 200 ppm (Fusarium culmorum) | pest or weed control at 200 ppm (Phytophthora infestans) | pest or weed control at 200 ppm (Plasmopara viticola) | pest or weed control at 200 ppm [1] | pest or weed control at 200 ppm [2]

C#Cc1cnc2cc(F)c(OC(CC)C(=O)NC(C)(C)C=NOC)cc2c1 (centres unmarked) [Compound No. 134, 2-(3-Ethynyl-7-fluoro-quinolin-6-yloxy)-N-(2-methoxyimino-1,1-dimethyl-ethyl)-butyramide]
≥ 60%: inhibition of growth at 200 ppm (Septoria tritici) | inhibition of growth at 20 ppm (Pythium ultimum) | pest or weed control at 200 ppm (Septoria nodorum) | inhibition of growth at 200 ppm (Fusarium culmorum) | pest or weed control at 200 ppm (Phytophthora infestans) | pest or weed control at 200 ppm (Plasmopara viticola) | pest or weed control at 200 ppm [1] | pest or weed control at 200 ppm [2]

C#Cc1cnc2c(C)cc(OC(CC)C(=O)NC(C)(C)C=NO)cc2c1 (centres unmarked) [Compound No. 139, 2-(3-Ethynyl-8-methyl-quinolin-6-yloxy)-N-(2-hydroxyimino-1,1-dimethyl-ethyl)-butyramide]
≥ 60%: inhibition of growth at 200 ppm (Septoria tritici) | inhibition of growth at 20 ppm (Pythium ultimum) | pest or weed control at 200 ppm (Septoria nodorum) | inhibition of growth at 200 ppm (Fusarium culmorum) | pest or weed control at 200 ppm (Phytophthora infestans) | pest or weed control at 200 ppm (Plasmopara viticola) | pest or weed control at 200 ppm [1] | pest or weed control at 200 ppm [2]

CCC(Oc1cc(Cl)c2ncc(Br)cc2c1)C(=O)NC(C)(C)C=NOC (centres unmarked) [Compound No. 146, 2-(3-Bromo-8-chloro-quinolin-6-yloxy)-N-(2-methoxyimino-1,1-dimethyl-ethyl)-butyramide]
≥ 60%: inhibition of growth at 200 ppm (Septoria tritici) | inhibition of growth at 20 ppm (Pythium ultimum) | pest or weed control at 200 ppm (Septoria nodorum) | inhibition of growth at 200 ppm (Fusarium culmorum) | pest or weed control at 200 ppm (Phytophthora infestans) | pest or weed control at 200 ppm (Plasmopara viticola) | pest or weed control at 200 ppm [1] | pest or weed control at 200 ppm [2]

C#Cc1cnc2ccc(OC(CC)C(=O)NC(C)(C)C=NO)cc2c1 (centres unmarked) [Compound No. 147, 2-(3-Ethynyl-quinolin-6-yloxy)-N-(2-hydroxyimino-1,1-dimethyl-ethyl)-butyramide]
≥ 60%: inhibition of growth at 200 ppm (Septoria tritici) | inhibition of growth at 20 ppm (Pythium ultimum) | pest or weed control at 200 ppm (Septoria nodorum) | inhibition of growth at 200 ppm (Fusarium culmorum) | pest or weed control at 200 ppm (Phytophthora infestans) | pest or weed control at 200 ppm (Plasmopara viticola) | pest or weed control at 200 ppm [1] | pest or weed control at 200 ppm [2]

C#Cc1cnc2ccc(OC(CC)C(=O)NC(C)(C)C=NOCC)cc2c1 (centres unmarked) [Compound No. 148, N-(2-Ethoxyimino-1,1-dimethyl-ethyl)-2-(3-ethynyl-quinolin-6-yloxy)-butyramide]
≥ 60%: inhibition of growth at 200 ppm (Septoria tritici) | inhibition of growth at 20 ppm (Pythium ultimum) | pest or weed control at 200 ppm (Septoria nodorum) | inhibition of growth at 200 ppm (Fusarium culmorum) | pest or weed control at 200 ppm (Phytophthora infestans) | pest or weed control at 200 ppm (Plasmopara viticola) | pest or weed control at 200 ppm [1] | pest or weed control at 200 ppm [2]

C#Cc1cnc2ccc(OC(CC)C(=O)NC(C)(C)C=NOCC=C)cc2c1 (centres unmarked) [Compound No. 149, N-(2-Allyloxyimino-1,1-dimethyl-ethyl)-2-(3-ethynyl-quinolin-6-yloxy)-butyramide]
≥ 60%: inhibition of growth at 200 ppm (Septoria tritici) | inhibition of growth at 20 ppm (Pythium ultimum) | inhibition of growth at 200 ppm (Fusarium culmorum) | pest or weed control at 200 ppm (Botrytis cinerea) | pest or weed control at 200 ppm [1] | pest or weed control at 200 ppm [2]

— US8507509B2, “Saturated and insaturated bi- or tricyclic aryloxyacetamine derivatives and their use as fungicides” (Syngenta Crop Protection LLC, priority 2007, dated 2013)
